This is an account of results in patent US10214508B2, “Nitrogen-containing heterocyclic compound” (Takeda Pharmaceutical Company Limited, priority 2014, dated 2019).

This test has as its target T1, human M1 receptor (hCHRM1) (Homo sapiens, UniProt P11229).
T1 construct: expressed in transfected cells
T1 sequence (P11229 1-460): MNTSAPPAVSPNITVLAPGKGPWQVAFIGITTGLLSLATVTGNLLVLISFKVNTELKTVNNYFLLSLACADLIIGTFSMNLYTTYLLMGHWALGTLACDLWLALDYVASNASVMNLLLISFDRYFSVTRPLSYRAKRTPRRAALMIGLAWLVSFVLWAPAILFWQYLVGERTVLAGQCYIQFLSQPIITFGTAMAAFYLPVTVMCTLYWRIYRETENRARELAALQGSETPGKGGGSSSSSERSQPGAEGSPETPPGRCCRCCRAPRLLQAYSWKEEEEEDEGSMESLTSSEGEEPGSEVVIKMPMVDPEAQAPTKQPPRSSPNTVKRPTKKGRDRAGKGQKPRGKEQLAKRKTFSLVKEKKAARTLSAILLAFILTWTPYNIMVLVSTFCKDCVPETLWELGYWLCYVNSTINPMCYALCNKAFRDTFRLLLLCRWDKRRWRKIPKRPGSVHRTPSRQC
Kind of test: Measurement of M1 receptor positive allosteric modulator (M1PAM) activity, calcium fluorescence (FLIPRtetra). The test is classed as cell-based. The following applies: 10 μM test compound with acetylcholine at EC20 (final 0.6-0.8 nM); 100% = acetylcholine 1 μM, 0% = DMSO; CHO-K1 cells expressing hCHRM1. As for the experimental part:
Measurement of M1 Receptor Positive Allosteric Modulator (M1PAM) Activity
The activity of a test compound in the presence of acetylcholine at EC20 concentration (final concentration 0.6-0.8 nM), which affords an action corresponding to about 20% of the maximum activity, was measured as PAM activity. The method is as follows. CHO-K1 cells stably expressing a human M1 receptor (hCHRM1) were plated on a 384-well black clear bottom plate (BD Falcon) at 5,000 cells/well, and cultured in an incubator at 37° C., 5% CO2 for 1 day. The medium in the cell plate was removed, and assay buffer A containing calcium indicator (Recording medium (DOJINDO LABORATORIES), 0.1% BSA (Wako Pure Chemical Industries, Ltd.), 2.5 μg/mL Fluo-4 AM (DOJINDO LABORATORIES), 0.08% Pluronic F127 (DOJINDO LABORATORIES), 1.25 mM probenecid (DOJINDO LABORATORIES)) was added at 30 μL/well. The cells were left standing in the incubator at 37° C., 5% CO2 for 30 min, and further left standing at room temperature for 30 min. A test compound prepared by diluting with assay buffer B (HBSS (Invitrogen), 20 mM HEPES (Invitrogen), 0.1% BSA) containing 2.4-3.2 nM acetylcholine was added at 10 μL/well, and the fluorescence was measured by FLIPRtetra (Molecular Devices) for 1 min every for 1 second. With the definition that the amount of change in the fluorescence on addition of acetylcholine (final concentration 1 μM) is 100% and that on addition of DMSO instead of a test compound is 0%, the activity (%) of the test compound was calculated, and the inflection point in the concentration-dependent curve of the test compound was calculated as IP values.
Consider `Cn1ccc(-c2ccc(Cc3cc(C(=O)N[C@H]4CCCC[C@@H]4O)ncc3Cl)cc2)n1` [Example 52, 5-chloro-N-((1S,2S)-2-hydroxycyclohexyl)-4-(4-(1-methyl-1H-pyrazol-3-yl)benzyl)pyridine-2-carboxamide], for which the “activity (%) at 10 μM” value came to 100%.

Turning to `O=C(N[C@H]1CCC[C@@H]1O)c1cc(Cc2ccc(-n3cccn3)cc2F)c(Cl)cn1` [Example 53, 5-chloro-4-(2-fluoro-4-(1H-pyrazol-1-yl)benzyl)-N-((1S,2S)-2-hydroxycyclopentyl)pyridine-2-carboxamide], the “activity (%) at 10 μM” value is given as 93%.

As for `O=C(N[C@H]1CCCC[C@@H]1O)c1cc(Cc2ccc(-n3cccn3)cc2F)c(Cl)cn1` [Example 54, 5-chloro-4-(2-fluoro-4-(1H-pyrazol-1-yl)benzyl)-N-((1S,2S)-2-hydroxycyclohexyl)pyridine-2-carboxamide], the “activity (%) at 10 μM” value was found to be 99%. Turning to `O=C(N[C@H]1CCCC[C@@H]1O)c1cc(Cc2ccc(-n3cccn3)cc2)c(F)cn1` [Example 55, 5-fluoro-N-((1S,2S)-2-hydroxycyclohexyl)-4-(4-(1H-pyrazol-1-yl)benzyl)pyridine-2-carboxamide], the “activity (%) at 10 μM” value turned out to be 97%.

In the case of `COc1cnc(C(=O)N[C@H]2COCC[C@@H]2O)cc1Cc1ccc(-n2cccn2)cc1` [Example 56, 1,5-anhydro-2,4-dideoxy-2-(((5-methoxy-4-(4-(1H-pyrazol-1-yl)benzyl)pyridin-2-yl)carbonyl)amino)-L-threo-pentitol], the “activity (%) at 10 μM” value is recorded as 103%. Then `COc1cnc(C(=O)N[C@H]2CCCC[C@@H]2O)cc1Cc1ccc(Cl)nc1` [Example 57, 4-((6-chloropyridin-3-yl)methyl)-N-(2-trans-hydroxycyclohexyl)-5-methoxypyridine-2-carboxamide], with 95%; and `COc1cnc(C(=O)N[C@H]2CCCC[C@@H]2O)cc1Cc1ccc(-c2cnn(C)c2)nc1` [Example 59, N-((1S,2S)-2-hydroxycyclohexyl)-5-methoxy-4-((6-(1-methyl-1H-pyrazol-4-yl)pyridin-3-yl)methyl)pyridine-2-carboxamide], with 90%. Then `COc1cnc(C(=O)N[C@H]2CCC[C@@H]2O)cc1Cc1ccc(-n2cccn2)cc1` [Example 60, N-((1S,2S)-2-hydroxycyclopentyl)-5-methoxy-4-(4-(1H-pyrazol-1-yl)benzyl)pyridine-2-carboxamide], with 87%; and `COc1cnc(C(=O)N[C@H]2CCCC[C@@H]2O)cc1Cc1ccc(Cl)nc1` [Example 61, 4-((6-chloropyridin-3-yl)methyl)-N-((1S,2S)-2-hydroxycyclohexyl)-5-methoxypyridine-2-carboxamide], with 108%; and `COc1cnc(C(=O)N[C@H]2CCCC[C@@H]2O)cc1Cc1ccc(Br)cc1` [Example 62, 4-(4-bromobenzyl)-N-((1S,2S)-2-hydroxycyclohexyl)-5-methoxypyridine-2-carboxamide], with 96%.

With `COc1cnc(C(=O)N[C@H]2CCCC[C@@H]2O)cc1Cc1ccc(-n2cccn2)cc1` [Example 63, N-((1S,2S)-2-Hydroxycyclohexyl)-5-methoxy-4-(4-(1H-pyrazol-1-yl)benzyl)pyridine-2-carboxamide], the “activity (%) at 10 μM” value is 94%. On to `COc1cnc(C(=O)N[C@H]2CCCC[C@@H]2O)cc1Cc1ccc(-c2cnn(C)c2)cc1` [Example 64, N-((1S,2S)-2-hydroxycyclohexyl)-5-methoxy-4-(4-(1-methyl-1H-pyrazol-4-yl)benzyl)pyridine-2-carboxamide], for which the “activity (%) at 10 μM” value was 104%. Under `Cc1nc(C(=O)N[C@H]2CCCC[C@@H]2O)cc(Cc2ccc(-c3ccn(C)n3)cc2)c1Cl` [Example 65, 5-chloro-N-((1S,2S)-2-hydroxycyclohexyl)-6-methyl-4-(4-(1-methyl-1H-pyrazol-3-yl)benzyl)pyridine-2-carboxamide] stands 106%. Under `Cc1nc(C(=O)N[C@H]2CCCC[C@@H]2O)cc(Cc2ccc(C#N)cc2)c1Cl` [Example 66, 5-chloro-4-(4-cyanobenzyl)-N-((1S,2S)-2-hydroxycyclohexyl)-6-methylpyridine-2-carboxamide] stands 105%; under `N#Cc1cnc(C(=O)N[C@H]2CCCC[C@@H]2O)cc1Cc1ccc(-n2cccn2)cc1` [Example 67, 5-cyano-N-((1S,2S)-2-hydroxycyclohexyl)-4-(4-(1H-pyrazol-1-yl)benzyl)pyridine-2-carboxamide], 95%; under `COc1cc(Cc2ccc(-n3cccn3)cc2)cc(C(=O)N[C@H]2CCC[C@@H]2O)n1` [Example 68, N-((1S,2S)-2-hydroxycyclopentyl)-6-methoxy-4-(4-(1H-pyrazol-1-yl)benzyl)pyridine-2-carboxamide], 96%.

In the case of `COc1cc(Cc2ccc(-n3cccn3)cc2)cc(C(=O)N[C@H]2CCCC[C@@H]2O)n1` [Example 69, N-((1S,2S)-2-hydroxycyclohexyl)-6-methoxy-4-(4-(1H-pyrazol-1-yl)benzyl)pyridine-2-carboxamide], the “activity (%) at 10 μM” value worked out at 100%.

Take `Cc1cc(Cc2ccc(-n3cccn3)cc2)cc(C(=O)N[C@H]2CCCC[C@@H]2O)n1` [Example 70, N-((1S,2S)-2-hydroxycyclohexyl)-6-methyl-4-(4-(1H-pyrazol-1-yl)benzyl)pyridine-2-carboxamide]: the “activity (%) at 10 μM” value was determined as 87%.

As to `COc1ccc(Cc2cc(C)nc(C(=O)N[C@H]3CCCC[C@@H]3O)c2)cc1` [Example 71, N-((1S,2S)-2-hydroxycyclohexyl)-4-(4-methoxybenzyl)-6-methylpyridine-2-carboxamide], the “activity (%) at 10 μM” value came to 69%.

In the case of `Cc1nc(C(=O)N[C@H]2CCCC[C@@H]2O)cc(Cc2ccc(Cl)nc2)c1C` [Example 73, 4-((6-chloropyridin-3-yl)methyl)-N-((1S,2S)-2-hydroxycyclohexyl)-5,6-dimethylpyridine-2-carboxamide], the “activity (%) at 10 μM” value worked out at 94%. With `Cc1nc(C(=O)N[C@H]2CCC[C@@H]2O)cc(Cc2ccc(-n3cccn3)cc2)c1C` [Example 75, N-((1S,2S)-2-hydroxycyclopentyl)-5,6-dimethyl-4-(4-(1H-pyrazol-1-yl)benzyl)pyridine-2-carboxamide], the “activity (%) at 10 μM” value was 102%.

As for `Cc1nc(C(=O)N[C@H]2CCCC[C@@H]2O)cc(Cc2ccc(-n3cccn3)cc2)c1C` [Example 76, N-((1S,2S)-2-hydroxycyclohexyl)-5,6-dimethyl-4-(4-(1H-pyrazol-1-yl)benzyl)pyridine-2-carboxamide], the “activity (%) at 10 μM” value turned out to be 92%. Then `Cc1nc(C(=O)N[C@H]2CCCC[C@@H]2O)cc(Cc2ccc(Br)cc2)c1C` [Example 77, 4-(4-bromobenzyl)-N-((1S,2S)-2-hydroxycyclohexyl)-5,6-dimethylpyridine-2-carboxamide], with 100%; and `Cc1nc(C(=O)N[C@H]2COCC[C@@H]2O)cc(Cc2ccc(-n3cccn3)cc2)c1C` [Example 78, 1,5-anhydro-2,4-dideoxy-2-(((5,6-dimethyl-4-(4-(1H-pyrazol-1-yl)benzyl)pyridin-2-yl)carbonyl)amino)-L-threo-pentitol], with 104%; and `Cc1nc(C(=O)N[C@H]2CCCC[C@@H]2O)cc(Cc2ccc(-c3cnn(C)c3)cc2)c1C` [Example 79, N-((1S,2S)-2-hydroxycyclohexyl)-5,6-dimethyl-4-(4-(1-methyl-1H-pyrazol-4-yl)benzyl)pyridine-2-carboxamide], with 106%.

Take `Cc1nc(C(=O)N[C@H]2CCCC[C@@H]2O)cc(Cc2ccc(-c3cnn(C)c3)nc2)c1C` [Example 80, N-((1S,2S)-2-hydroxycyclohexyl)-5,6-dimethyl-4-((6-(1-methyl-1H-pyrazol-4-yl)pyridin-3-yl)methyl)pyridine-2-carboxamide]: the “activity (%) at 10 μM” value turned out to be 84%. Under `Cc1nc(C(=O)N[C@H]2CCCC[C@@H]2O)cc(Cc2ccc(-c3ccn(C)n3)cc2)c1C` [Example 81, N-((1S,2S)-2-hydroxycyclohexyl)-5,6-dimethyl-4-(4-(1-methyl-1H-pyrazol-3-yl)benzyl)pyridine-2-carboxamide] stands 97%.
